The subject of assay [1] is HT-29 cells. In words: Combined use of VST and cisplatin, colony-forming ability of HT-29 cells. The assay is classed as cell-based. The note with it: glucose starvation condition. An excerpt: Enhancement of endoplasmic reticulum stress response promotes survival of cells under undernutritive conditions, and at the same time allows cells to acquire resistance to antitumor agents. Therefore, the inventors intended to examine the effect of VST on known antitumor agents. […] Therefore, the combined effect with other pharmaceutical agents could not be duly examined. Thus, cisplatin generally used for solid cancer treatment was used to examine the combined effect, due to its activity on cancer cells that is maintained even under low glucose conditions. Specifically, HT-29 cells were cultured by the above-mentioned method, pretreated for 30 min with VST, and then cultured for 18 hours. The cells were then treated for 4 hours with each concentration of cisplatin, and a week later their colony-forming ability was examined.

In assay [2] the test system is HT-29 cells. In words: Antitumor effect against HT-29 cells transplanted into nude mice. The assay is classed as in vivo. The note with it: HT-29 tumor grown to 100 mm^3 in nude mice; VST through the tail vein (FIG. 15). Here is the method:
The antitumor effect of VST at the animal level was examined. Specifically, HT-29 cells were transplanted into nude mice and tumor was grown to 100 mm^3. Subsequently, each concentration of VST was administered through the tail vein, progress of cancer was followed each day thereafter, and the tumor was enucleated to compare its size. […] Furthermore, the combined effect with CDDP (cisplatin) was examined.

The record followed here is patent publication US7358233B2, “Tetronic acid derivative” (Toudai TLO, Ltd, priority 2001, dated 2008).

On to `N.N.[Cl][Pt][Cl]` [cisplatin, reference compound], for which the “activity on colony-forming ability under glucose starvation condition” value with HT-29 cells [1] was “enhance the activity”. Besides, the “antitumor effect (tumor size)” value in the assay with HT-29 cells [2] is reported as “sufficient”.
